According to patent US11499978B2, “Method for measuring quality of therapeutic cell through real-time glutathione measurement” (CELL2IN, INC., priority 2017, dated 2022):

How the values were obtained:
hUC-MSCs [1] = test: CFU-F assay of hUC-MSCs; assay type: cell-based, human; settings: n=3
Description: (§1) The inventors observed an effect of the material on stem cells by treating each stem cells with a material for enhancing a glutathione evaluation parameter. When hUC-MSCs were subcultured in a L-AA2G-containing medium, CFU-F, migration capacity, and an anti-inflammatory effect were observed. A CFU-F assay (n=3) was performed by treating hUC-MSCs with 125 or 250 μg/mL of AA2G for three days. As shown in FIGS. 16A and 16B, it was confirmed that, when AA2G was treated, CFU-F increased. In addition, as hUC-MSCs were treated with 125 or 250 μg/mL of AA2G for three days, PDGF-AA-induced migration capacity (n=3) was analyzed. As shown in FIGS. 17A and 17B, it was confirmed that the migration capacity was increased by AA2G treatment. In addition, the reduction in T cell proliferation, the reduction in T cell differentiation, and the promotion of Treg cell differentiation were observed by treating hUC-MSCs with 125 or 250 μg/mL of AA2G for three days. […] Meanwhile, hUC-MSCs were cultured with a glutathione precursor such as γ-glutamyl cysteine (GGC, 0.1, 0.25, and 0.5 mM). A CFU-F assay (n=3) was performed by treating hUC-MSCs with each concentration of GGC for 2 hours. […] In addition, SDF1α and PDGF-AA-induced migration capacities (n=3) were analyzed for hUC-MSCs without treatment with GGC, and SDF1α and PDGF-AA-induced migration abilities (n=3) were analyzed by treating hUC-MSCs with the increasing concentrations of GGC. STI571 was used as a PDGFR kinase inhibitor. As shown in FIGS. 20A to 20C, it was confirmed that, according to an increase in GGC treatment concentration, SDF1α- and PDGF-AA-induced migration capacities were enhanced. A CFU-F assay (n=3) was performed by treating hUC-MSCs with 0.2, 1, 2, and 4 μM ferrostatin-1 and 0.1, 0.5, 1, and 2 μM liproxstatin-1 for 24 hours.

hUC-MSCs [2] = test: SDF1α- and PDGF-AA-induced migration capacity of hUC-MSCs; assay type: cell-based, human; settings: increasing GGC treatment concentration (0.1, 0.25 mM), n=3
Description: as §1, with “mM).” for “mM). A CFU-F assay (n=3) was performed by treating hUC-MSCs with each concentration of GGC for 2 hours.”, “STI571 was used as a PDGFR kinase inhibitor. As shown in FIGS. 20A to 20C, it was confirmed that, according to an increase in GGC treatment concentration, SDF1α- and PDGF-AA-induced migration capacities were enhanced. A CFU-F assay (n=3) was performed by treating hUC-MSCs with 0.2, 1, 2, and 4 μM ferrostatin-1 and 0.1, 0.5, 1, and 2 μM liproxstatin-1 for 24 hours.” left out

T cells = test: Anti-inflammatory effect of treated hUC-MSCs on T cells; assay type: cell-based; settings: for anti-inflammatory effect of the hUC-MSCs: ferrostatin-1 1 μM 24 h, GGC 0.2 mM 2 h, FIGS. 27, 28A to 28C; for T cell differentiation capacity / T cell proliferation ability / Treg cell differentiation: hUC-MSCs treated with 1 μM ferrostatin-1 24 h, 0.2 mM GGC 2 h, 2 mM GSH-EE 2 h
Description: The inventors observed an effect of the material on stem cells by treating each stem cells with a material for enhancing a glutathione evaluation parameter. When hUC-MSCs were subcultured in a L-AA2G-containing medium, CFU-F, migration capacity, and an anti-inflammatory effect were observed. A CFU-F assay (n=3) was performed by treating hUC-MSCs with 125 or 250 μg/mL of AA2G for three days. As shown in FIGS. 16A and 16B, it was confirmed that, when AA2G was treated, CFU-F increased. In addition, as hUC-MSCs were treated with 125 or 250 μg/mL of AA2G for three days, PDGF-AA-induced migration capacity (n=3) was analyzed. As shown in FIGS. 17A and 17B, it was confirmed that the migration capacity was increased by AA2G treatment. In addition, the reduction in T cell proliferation, the reduction in T cell differentiation, and the promotion of Treg cell differentiation were observed by treating hUC-MSCs with 125 or 250 μg/mL of AA2G for three days.
In addition, hUC-MSCs were cultured with ferrostatin-1 (0.2, 1, 2 and 4 μM) and liproxstatin-1 (0.1, 0.5, 1 and 2 μM), which control a glutathione level in cells by inhibiting lipid oxidation. […] Meanwhile, the hUC-MSCs were treated with 1 μM ferrostatin-1 for 24 hours, 0.2 mM GGC for 2 hours, and 2 mM GSH-EE for 2 hours. As a result, the reduction in T cell proliferation ability and the reduction in T cell differentiation capacity were observed, and promotion of Treg cell differentiation was observed.

hUC-MSCs [3] = test: mGSH distribution in hUC-MSCs after RSL3 (MitoFreSH, flow cytometry and confocal imaging); assay type: cell-based, human; settings: hUC-MSCs treated with RSL3
Description: After the cultured human umbilical cord-derived mesenchymal stem cells (hUC-MSCs) at passage 4, 7 or 15 were treated with various concentrations of RSL3 and stained with MitoFreSH, the distribution pattern of mitochondrial GSH (mGSH) in the cells was confirmed by histograms using flow cytometry and confocal imaging.
hUC-MSCs at passage 4, 7 or 15 were prepared, seeded at 70000 cells/well in a 6-well cell culture plate, and cultured at 37° C. for 24 hours. The medium used in the culture was prepared by adding 10% fetal bovine serum and 1× penicillin-streptomycin to α-MEM. […] The cells detached from the plate were transferred to an FACS tube and stored on ice, and a fluorescence level was measured using a flow cytometer.
hUC-MSCs at passage 4, 7 or 15 were prepared, seeded at 7000 cells/100 μl per well in a 96-well cell culture plate, and cultured at 37° C. for 24 hours. […] To remove MitoFreSH-Tracer from the medium before measurement, the medium was exchanged with fresh 10 mM HEPES-containing HBSS, and fluorescence images were measured using a confocal imaging system, Operetta.
A F510/F580 ratio referring to a GSH mean value in cells was calculated by measuring fluorescence values of F510 (fluorescence value when MitoFreSH-Tracer was bound with SH) and F580 (fluorescence value of MitoFreSH-Tracer, which was not bound with SH) in cells and dividing the F510 value by the F580 value. […]

hUC-MSCs [4] = test: Oxidative stress resistance capacity (ORC) analysis in hUC-MSCs with RSL3; assay type: cell-based, human; settings: hUC-MSCs; liproxstatin-1 0, 2.5, 5 or 10 μM; RSL3 0, 0.5 or 1 μM; the higher the concentration
Description: GRC refers to a value obtained by real-time monitoring of FR after living cells are treated with an oxidizing agent, as calculated by dividing a value obtained by subtracting AUC of a group treated with 0.1-100 mM N-ethylmaleimide (NEM) from FR AUC of an oxidizing agent (diamide, H2O2, etc.)-treated group by a value obtained by subtracting the AUC of NEM-treated group from AUC of the untreated control, and multiplying the resulting value by 100. The FR of the NEM-treated group is a value for increasing the sensitivity of a GRC value by treating it as the blank value of the FR of the cells of interest. […] To remove the MitoFreSH-Tracer from the medium before measurement, the medium was exchanged with fresh 10 mM HEPES-containing HBSS(Hanks' Balanced Salt Solution), and a fluorescence image was obtained using a confocal imaging system, Operetta. By comparing GSH levels quantified from control cells not treated with RSL3 or control cells before treated with RSL3, the distribution of GSH expression-changed cells was calculated. Based on the point where the distribution histogram is divided into two peaks, the cells were divided into GSH^High cells (right peak) and GSH^Low cells (left peak), and then a ratio of corresponding cells was expressed as a percentage (%). […]

[5] = ferrostatin-1 0.2, 1, 2 and 4 μM, liproxstatin-1 0.1, 0.5, 1 and 2 μM, 24 hours

N[C@@H](CCC(=O)N[C@@H](CS)C(=O)O)C(=O)O [GGC, γ-glutamyl cysteine]
CFU-F (hUC-MSCs [1]; GGC 0.1, 0.25 and 0.5 mM for 2 hours): increased | SDF1α- and PDGF-AA-induced migration capacities (hUC-MSCs [2]): enhanced | anti-inflammatory effect of the hUC-MSCs (T cells): no change | T cell differentiation capacity (T cells): reduction | T cell proliferation ability (T cells): reduction | Treg cell differentiation (T cells): promotion

CCOC(=O)c1ccc(NC2CCCCC2)c(N)c1 [ferrostatin-1]
CFU-F (hUC-MSCs [1]; [5]): improved | anti-inflammatory effect of the hUC-MSCs (T cells): did not alter | T cell differentiation capacity (T cells): reduction | T cell proliferation ability (T cells): reduction | Treg cell differentiation (T cells): promotion | effect of RSL3 on mGSH upon Ferrostatin-1 treatment (hUC-MSCs [3]): disappeared

Clc1cccc(CN=C2Nc3ccccc3NC23CCNCC3)c1 [liproxstatin-1]
ORC: ratio of the GSH^High cells (hUC-MSCs [4]): increased | CFU-F (hUC-MSCs [1]; [5]): improved | anti-inflammatory effect of the hUC-MSCs (T cells): did not alter
